Measurements from patent US20140296484A1, “Cyclin Based Inhibitors of CDK2 and CDK4” (University of South Carolina, priority 2013, published 2014).
Several values for one entry are separate records, joined by “and”; a condition that tells them apart may be missing. Identical values can stand only once. Like-named read-outs stand apart in the source and are kept apart here. Blank lines part the entries; values can stand above or below the molecule they belong to. Where a SMILES comes first, the peptide text is derived from it. Where no end group is shown, it is not given here. [ ]: non-standard residue; d: D form. The star is where a group is joined. Ala(cPent) = N[C@@H](CC1CCCC1)C(=O)O; X2 = O=C(c1ccc(-c2ccc(Cl)cc2)o1)*; 3Pal = N[C@@H](Cc1cccnc1)C(=O)O; 2Thi = N[C@@H](Cc1cccs1)C(=O)O; 3Thi = N[C@@H](Cc1ccsc1)C(=O)O; Cba = N[C@@H](CC1CCC1)C(=O)O; Picolinoyl = O=C(c1ccccn1)*

Columns and labels:
CDK4/Cyclin D1 [1] = molecular target: T1, CDK4/Cyclin D1 (Homo sapiens, UniProt P24385); experiment: In vitro kinase assay, 32P filter capture with GST-Rb substrate; format: biochemical; settings: for IC50: kinase assay
T1 sequence (P24385 whole entry): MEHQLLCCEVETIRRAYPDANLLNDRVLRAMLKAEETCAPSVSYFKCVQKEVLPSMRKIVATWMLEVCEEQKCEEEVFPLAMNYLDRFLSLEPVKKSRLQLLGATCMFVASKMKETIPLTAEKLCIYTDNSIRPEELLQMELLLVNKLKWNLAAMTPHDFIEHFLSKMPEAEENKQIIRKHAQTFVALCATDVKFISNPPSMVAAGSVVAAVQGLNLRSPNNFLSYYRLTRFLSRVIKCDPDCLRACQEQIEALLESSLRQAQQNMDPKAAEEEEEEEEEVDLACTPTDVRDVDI
T1 sequence (P11802 whole entry partner): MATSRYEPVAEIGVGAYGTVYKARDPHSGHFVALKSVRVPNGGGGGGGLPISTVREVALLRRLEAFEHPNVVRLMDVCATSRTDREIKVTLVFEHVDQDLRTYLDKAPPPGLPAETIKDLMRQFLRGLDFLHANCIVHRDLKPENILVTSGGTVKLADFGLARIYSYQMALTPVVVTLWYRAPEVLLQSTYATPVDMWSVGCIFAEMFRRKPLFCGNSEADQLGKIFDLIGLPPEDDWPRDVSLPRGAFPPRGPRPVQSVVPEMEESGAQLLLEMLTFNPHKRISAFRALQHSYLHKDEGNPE

CDK2/cyclin A = CDK2/cyclin A (Homo sapiens, UniProt P20248); experiment: Fluorescence polarization (FP) competitive binding assay
Protocol: (§1) Once the compounds were characterized, their binding affinities were tested by FP assay.

[2] = as above; settings: Table 20; read-out: CDK2/Cyclin A IC050
Protocol: (§2) In order to assess the contribution of the PLA H-bond acceptor, analogous compounds were made in each series and activities for the 4-chloro and 3,5-dichloro analog were evaluated in each context.
(§3) Several additional analogs were synthesized in addition to the 3,5 dichloro and 4-chlorophenyl analogs. In addition to determining their inhibition of CDK2/cyclin A, the availability of the CDK4/cyclin D1 binding assay was exploited to develop SAR for both kinases.
as §1

CDK4/Cyclin D1 [3] = molecular target: T1, CDK4/Cyclin D1; experiment: as above
Protocol: as §2, §3, §1

CDK2/Cyclin A2 = CDK2/Cyclin A2 (Homo sapiens, UniProt P20248); experiment: In vitro kinase assay, 32P filter capture with GST-Rb substrate; format: biochemical
CDK2/E = CDK2/E (Homo sapiens, UniProt P24864); experiment: In vitro kinase assay
[4] = tested on: retinoblastoma (Rb)-positive tumor cells; settings: cited from earlier work
36 other protein kinases = settings: cited from earlier work
[5] = tested on: Colo-205 human colon carcinoma xenografts; settings: oral administration to mice bearing Colo-205 xenografts; cited from earlier work
[6] = Table 10, Scaffold III N-caps on the peptide link, read-out: IC50 CDK2/A2

Molecule: CC(C)C[C@H](NC(=O)[C@H](CCCNC(=N)N)NC(=O)[C@H](CCCNC(=N)N)NC(=O)[C@H](CCCCN)NC(=O)[C@H](C)NC(=O)[C@@H]1CCCN1)C(=O)N[C@@H](Cc1ccccc1)C(=O)NCC(N)=O
IC50 (CDK4/Cyclin D1 [1]): 6.7 µM

Molecule: CC[C@H](C)[C@H](NC(=O)[C@H](CC(C)C)NC(=O)[C@H](CCCNC(=N)N)NC(=O)c1ccccn1)C(=O)N[C@@H](Cc1ccccc1)C(=O)O [525 (RLIF form)] (Picolinoyl-RLIF-OH)
IC50 (CDK2/cyclin A; Table 11, value tagged (LIF), read-out: IC50 CDK2/A2 (LIF)): 94.3 ± 14.9 µM
IC50 (CDK4/Cyclin D1 [3]; Table 11, value tagged (LIF) (0321), read-out: IC50 CDK4/D1 (LIF) (0321)): 49 µM
IC50 (CDK4/Cyclin D1 [3]; Table 11, value tagged (LIF), read-out: IC50 CDK4/D1 (LIF)): 64 µM

Molecule: CC[C@H](C)[C@H](NC(=O)[C@H](CC(C)C)NC(=O)[C@H](CCCNC(=N)N)NC(=O)[C@@H](N)CCCNC(N)=O)C(=O)N[C@@H](Cc1ccccc1)C(N)=O [CitRLIF, Cit-RLIF]
IC50 (CDK4/Cyclin D1 [1]): 179 µM

Molecule: CC[C@H](C)[C@H](NC(=O)[C@H](CC(C)C)NC(=O)[C@H](CCCNC(=N)N)NC(=O)[C@H](CCCNC(=N)N)NC(=O)[C@H](CCCCN)NC(=O)[C@H](C)NC(=O)[C@@H](N)Cc1c[nH]cn1)C(=O)N[C@@H](Cc1ccco1)C(N)=O [HAKRRLIX1]
IC50 (CDK2/Cyclin A2): 6.1 µM
IC50 (CDK2/E): 1.3 µM

Molecule: CC[C@H](C)[C@H](NC(=O)[C@H](CC(C)C)NC(=O)[C@H](CCCNC(=N)N)NC(=O)[C@H](CCCNC(=N)N)NC(=O)[C@H](CCCCN)NC(=O)[C@H](C)NC(=O)[C@@H](N)Cc1c[nH]cn1)C(=O)N[C@@H](Cc1cccs1)C(N)=O [HAKRRLIX2] (H-HAKRRLI[2Thi]-NH2)
IC50 (CDK2/Cyclin A2): 3.6 µM

Molecule: CC[C@H](C)[C@H](NC(=O)[C@H](CC(C)C)NC(=O)[C@H](CCCNC(=N)N)NC(=O)[C@H](CCCNC(=N)N)NC(=O)[C@H](CCCCN)NC(=O)[C@H](C)NC(=O)[C@@H](N)Cc1c[nH]cn1)C(=O)N[C@@H](Cc1ccsc1)C(N)=O [HAKRRLIX3] (H-HAKRRLI[3Thi]-NH2)
IC50 (CDK2/Cyclin A2): 25 µM

Molecule: CC[C@H](C)[C@H](NC(=O)[C@H](CC(C)C)NC(=O)[C@H](CCCNC(=N)N)NC(=O)[C@H](CCCNC(=N)N)NC(=O)[C@H](CCCCN)NC(=O)[C@H](C)NC(=O)[C@@H](N)Cc1c[nH]cn1)C(=O)N[C@@H](CC1CCC1)C(N)=O [HAKRRLIX4] (H-HAKRRLI[Cba]-NH2)
IC50 (CDK2/Cyclin A2): 25 µM
IC50 (CDK4/Cyclin D1 [1]): 100 µM

Molecule: CC[C@H](C)[C@H](NC(=O)[C@H](CC(C)C)NC(=O)[C@H](CCCNC(=N)N)NC(=O)[C@H](CCCNC(=N)N)NC(=O)[C@H](CCCCN)NC(=O)[C@H](C)NC(=O)[C@@H](N)Cc1c[nH]cn1)C(=O)N[C@@H](CC1CCCC1)C(N)=O [HAKRRLIX5] (H-HAKRRLI[Ala(cPent)]-NH2)
IC50 (CDK2/Cyclin A2): 20 µM
IC50 (CDK4/Cyclin D1 [1]): 90 µM

Molecule: CC[C@H](C)[C@H](NC(=O)[C@H](CC(C)C)NC(=O)[C@H](CCCNC(=N)N)NC(=O)[C@H](CCCNC(=N)N)NC(=O)[C@H](CCCCN)NC(=O)[C@H](C)NC(=O)[C@@H](N)Cc1c[nH]cn1)C(=O)N[C@@H](Cc1cccnc1)C(N)=O [HAKRRLIX7] (H-HAKRRLI[3Pal]-NH2)
IC50 (CDK2/Cyclin A2): 29 µM

Molecule: CC(=O)c1c(C)c2cnc(Nc3ccc(N4CCNCC4)cn3)nc2n(C2CCCC2)c1=O [PD0332991]
antiproliferative activity [4]: potent antiproliferative agent
activity against 36 other protein kinases (36 other protein kinases): no activity
tumor response [5]: marked tumor regression

Molecule: CC[C@H](C)[C@H](NC(=O)[C@H](CC(C)C)NC(=O)[C@H](CCCNC(=N)N)NC(=O)c1nc(C)n(-c2cc(Cl)cc(Cl)c2)n1)C(=O)NCc1cccc(Oc2ccccc2)c1 [SCCP10]
IC50 (CDK4/Cyclin D1 [1]): 8 µM

Molecule: CC(C)C[C@@H](CC(=O)NCc1cccc(Oc2ccccc2)c1)NC(=O)[C@H](CCCNC(=N)N)NC(=O)[C@@H](N)CCCNC(=N)N [SCCP 5624, Arg-Arg-β-homoleucyl-3-phenoxybenzylamid]
selectivity (CDK4/Cyclin D1 [1]; CDK4/cyclin D1 vs CDK2/cyclin A): selective for CDK4/cyclin D1

Results, then the molecule that gave them:

IC50 (CDK2/cyclin A; [6]): 16.7 µM
Molecule: 5919 (RLIF) [compound 5919]

IC50 (CDK2/cyclin A; [6]): 5.86 µM
Molecule: 5920 (RLIF; also: OH in table column, meaning not given here) [compound 5920]

IC50 (CDK2/cyclin A; [6]): 6.04 µM and 6.6 µM
Molecule: 5921 (RLIF; also: C7H16N2 group attached) [compound 5921]

IC50 (CDK2/cyclin A; competitive binding (FP) assay, read-out: CDK2/Cyclin A IC50): > 180 µM
IC50 [2]: > 180 µM
Molecule: COc1ccccc1CC(CC(C)C)NC(=O)C(CCCCNC(=N)N)NC(=O)c1nc(C)n(-c2cc(Cl)cc(Cl)c2)n1 (single isomer, unassigned) [compound 5981]

binding in the FP assay (CDK2/cyclin A; cyclin not specified (Cyclin A and D1 expected)): weakly binding
Molecule: N=C(N)NCCCC(NC(=O)c1ccccc1)C(=O)Nc1ccc2ccccc2c1 (stereo not drawn) [N-(5-guanidino-1-(naphthalen-2-ylamino)-1-oxopentan-2-yl)benzamide]

IC50 (CDK4/Cyclin D1 [1]): 179 µM
Molecule: CC[C@H](C)[C@H](NC(=O)[C@H](CC(C)C)NC(=O)[C@H](CCCNC(N)=O)NC(=O)[C@@H](N)CCCNC(=N)N)C(=O)N[C@@H](Cc1ccccc1)C(N)=O [RCitLIF]

fold less potent relative to the triazole N capping group (CDK4/Cyclin D1 [3]; CDK4/cyclin D1 context): 25 fold
Molecule: CC[C@H](C)[C@H](NC(=O)[C@H](CC(C)C)NC(=O)[C@H](CCCNC(=N)N)NC(=O)c1ccc(-c2ccc(Cl)cc2)o1)C(=O)N[C@@H](Cc1ccccc1)C(=O)O [SCCP 5770] (X2-RLIF-OH)
